Patent publication US20260363244A1, “HERBICIDAL COMPOSITIONS COMPRISING URACILS” (BASF SE, priority 2022, published 2026)
Like-named read-outs stand apart in the source and are kept apart here.

Assays:
Type in all cases: in vivo
Setaria viridis = experiment: greenhouse post-emergence herbicidal activity, SETVI; conditions: for activity at 0.4 g/ha / activity at 0.8 g/ha / activity at […]: Setaria viridis, post-emergence, read-out: % activity (solo application); for activity at 0.4 g/ha: 0.4 gai/ha; for activity at 0.8 g/ha: 0.8 gai/ha; for % activity: solo application, SETVI
Procedure: (§1) The following examples serve to illustrate the invention.
(§2) The culture containers used were plastic pots containing loamy sand with approximately 3.0% of humus as substrate. The seeds of the test plants were sown separately for each species.
(§3) For the post-emergence treatment, the test plants were grown to a plant height of from 3 to 15 cm, depending on the plant habit, and only then treated with the active compounds which had been suspended or emulsified in water. To this end, the test plants were either sown directly, and grown in the same containers, or they were first grown separately as seedlings and transplanted into the test containers a few days prior to treatment.
(§4) Depending on the species, the plants were kept at 10-25 °C and 20-35 °C, respectively. The test period extended over 2 to 4 weeks. During this time, the plants were tended and their response to the individual treatments was evaluated.
(§5) Evaluation was carried out using a scale from 0 to 100. 100 means no emergence of the plants, or complete destruction of at least the above-ground parts, and 0 means no damage or normal course of growth. A good herbicidal activity is given at values of at least 70, and very good herbicidal activity is given at values of at least 85.
(§6) The respective stated components A and B, and if appropriate, C were formulated as a 5% by weight strength emulsion concentrate and, with addition of the amount of solvent system, introduced into the spray liquor used for applying the active compound. In the examples, the solvent used was water.
(§7) In the examples below, using the method of S. R. Colby (1967) “Calculating synergistic and antagonistic responses of herbicide combinations”, Weeds 15, p. 22ff., the value E, which is expected if the activity of the individual active compounds is only additive, was calculated.
(§8) E=X+Y−(X·Y/100) • where • X=percent activity using active compound A at an application rate a; • Y=percent activity using active compound B at an application rate b; • E=expected activity (in %) by A+B at application rates a+b.
(§9) The plants used in the greenhouse experiments were of the following species
(§10) In this context, a.i. means active ingredient, based on 100% active ingredient.
(§11) As indicated the application was post emergent (POST) at the respective growth stage (GS) of the weed.
(§12) Assessment was at the indicated days after treatment (DAT).

Echinocloa crus-galli = experiment: greenhouse post-emergence herbicidal activity, ECHCG; conditions: for activity at 0.4 g/ha: Echinochloa crus-galli, post-emergence, 0.4 gai/ha, read-out: % activity (solo application); for % activity: solo application, ECHCG
Procedure: as §1, §2, §3, §4, §5, §6, §7, §8, §9, §10, §11, §12

Digitaria sanguinales = experiment: greenhouse post-emergence herbicidal activity, DIGSA
Procedure: as §1, §2, §3, §4, §5, §6, §7, §8, §9, §10, §11, §12

Setaria faberi = experiment: greenhouse post-emergence herbicidal activity, SETFA; conditions: Setaria faberi, post-emergence, 480 h, GS 11-33, 20 DAT, read-out: % activity (solo application)
Procedure: as §1, §2, §3, §4, §5, §6, §7, §8, §9, §10, §11, §12

Brachiaria decumbens = experiment: greenhouse post-emergence herbicidal activity, BRADC; conditions: for activity at […]: Urochloa decumbens, post-emergence, read-out: % activity (solo application)
Procedure: as §1, §2, §3, §4, §5, §6, §7, §8, §9, §10, §11, §12

Abutilon theophrasti = experiment: greenhouse post-emergence herbicidal activity, ABUTH; conditions: read-out: % activity (solo application); for activity at 0.4 g/ha: 0.4 gai/ha; for activity at 0.8 g/ha: 0.8 gai/ha
Procedure: as §1, §2, §3, §4, §5, §6, §7, §8, §9, §10, §11, §12

Amaranthus tamariscinus = experiment: greenhouse post-emergence herbicidal activity, AMATA; conditions: read-out: % activity (solo application); for activity at 0.4 g/ha: 0.4 gai/ha
Procedure: as §1, §2, §3, §4, §5, §6, §7, §8, §9, §10, §11, §12

Sorghum halepense = experiment: greenhouse post-emergence herbicidal activity, SORHA; conditions: GS 11-33, 20 DAT
Procedure: as §1, §2, §3, §4, §5, §6, §7, §8, §9, §10, §11, §12

Eleusine indica = experiment: greenhouse post-emergence herbicidal activity, ELEIN; conditions: read-out: % activity (solo application); for activity at 0.4 g/ha: 0.4 gai/ha
Procedure: as §1, §2, §3, §4, §5, §6, §7, §8, §9, §10, §11, §12

Commenline benghalensis = experiment: greenhouse post-emergence herbicidal activity, COMBE; conditions: read-out: % activity (solo application); for activity at […]: 168 h, GS 11-33, 7 DAT
Procedure: as §1, §2, §3, §4, §5, §6, §7, §8, §9, §10, §11, §12

Lolium multiflorum = experiment: greenhouse post-emergence herbicidal activity, LOLMU; conditions: for activity at […]: Lolium multiflorum, post-emergence, 3.2 gai/ha, read-out: % activity (solo application)
Procedure: as §1, §2, §3, §4, §5, §6, §7, §8, §9, §10, §11, §12

Kochia scoparia = experiment: greenhouse post-emergence herbicidal activity, KCHSC; conditions: for activity at 0.4 g/ha: 0.4 gai/ha; for % activity: solo application, KCHSC
Procedure: as §1, §2, §3, §4, §5, §6, §7, §8, §9, §10, §11, §12

Avena fatua = experiment: greenhouse post-emergence herbicidal activity, AVEFA; conditions: read-out: % activity (solo application); for activity at 0.4 g/ha: 0.4 gai/ha
Procedure: as §1, §2, §3, §4, §5, §6, §7, §8, §9, §10, §11, §12

[1] = 192 h, GS 11-33, 8 DAT, 3.2 gai/ha
[2] = 480 h, GS 11-33, 20 DAT, 1.6 gai/ha
[3] = 480 h, GS 11-33, 20 DAT, 3.2 gai/ha
[4] = GS 11-33, 20 DAT, use rate 0.4 gai/ha
[5] = 168 h, GS 11-33, 7 DAT, 3.2 gai/ha

C=C[C@]1(C(=O)N[C@H]2CO[C@@H](C(=O)OC)C2)CC(c2cc(F)cc(F)c2)=NO1 (mixture of isomers) [ISOX-8, methyl (2RS,4RS)-4-({[(5S)-3-(3,5-difluorophenyl)-5-vinyl-4,5-dihydroisoxazol-5-yl]carbonyl}amino)tetrahydrofuran-2-carboxylate]
activity at 0.4 g/ha (Setaria viridis; 192 h, GS 11-33, 8 DAT): 10%
activity at 0.8 g/ha (Setaria viridis; 192 h, GS 11-33, 8 DAT): 25%
activity at […] (Setaria viridis; [1]): 40%
activity at 0.4 g/ha (Setaria viridis; 480 h, GS 11-33, 20 DAT): 10%
activity at 0.8 g/ha (Setaria viridis; 480 h, GS 11-33, 20 DAT): 25%
activity at […] (Setaria viridis; [2]): 50%
activity at […] (Setaria viridis; [3]): 85%
% activity (Setaria viridis; GS 11-33, 8 DAT, use rate 0.4 gai/ha): 10%
% activity (Setaria viridis; GS 11-33, 8 DAT, use rate 3.2 gai/ha): 40%
activity at 0.4 g/ha (Echinocloa crus-galli; 168 h, GS 11-33, 7 DAT): 15%
activity at 0.4 g/ha (Echinocloa crus-galli; 480 h, GS 11-33, 20 DAT): 10%
% activity (Echinocloa crus-galli; [4]): 10%
% activity (Echinocloa crus-galli; GS 11-33, 20 DAT, use rate 0.8 gai/ha): 35%
activity at 0.4 g/ha (Digitaria sanguinales; Digitaria, post-emergence, 192 h, GS 11-33, 8 DAT, 0.4 gai/ha, read-out: % activity (solo application)): 10%
activity at […] (Digitaria sanguinales; Digitaria, post-emergence, 480 h, GS 11-33, 20 DAT, 3.2 gai/ha, read-out: % activity (solo application)): 60%
% activity (Digitaria sanguinales; solo application, DIGSA, GS 11-33, 20 DAT, use rate 0.8 gai/ha): 10%
activity at 0.4 g/ha (Setaria faberi; 0.4 gai/ha): 20%
activity at […] (Setaria faberi; 1.6 gai/ha): 60%
activity at […] (Setaria faberi; 3.2 gai/ha): 90%
activity at […] (Brachiaria decumbens; 192 h, GS 11-33, 8 DAT, 1.6 gai/ha): 25%
activity at […] (Brachiaria decumbens; [1]): 50%
activity at […] (Brachiaria decumbens; [3]): 30%
% activity (Brachiaria decumbens; solo application, BRADC, GS 11-33, 20 DAT, use rate 1.6 gai/ha): 20%
activity at 0.4 g/ha (Abutilon theophrasti; 168 h, GS 11-33, 7 DAT): 5%
activity at 0.8 g/ha (Abutilon theophrasti; 168 h, GS 11-33, 7 DAT): 5%
activity at […] (Abutilon theophrasti; 168 h, GS 11-33, 7 DAT, 1.6 gai/ha): 10%
activity at […] (Abutilon theophrasti; [5]): 15%
activity at 0.4 g/ha (Abutilon theophrasti; 480 h, GS 11-33, 20 DAT): 5%
activity at 0.8 g/ha (Abutilon theophrasti; 480 h, GS 11-33, 20 DAT): 5%
activity at […] (Abutilon theophrasti; [3]): 20%
activity at 0.4 g/ha (Amaranthus tamariscinus; 168 h, GS 11-33, 7 DAT): 40%
activity at 0.4 g/ha (Amaranthus tamariscinus; 480 h, GS 11-33, 20 DAT): 35%
activity at 0.8 g/ha (Amaranthus tamariscinus; 480 h, GS 11-33, 20 DAT, 0.8 gai/ha): 75%
activity at 0.8 g/ha (Sorghum halepense; Sorghum halepense, post-emergence, 480 h, 0.8 gai/ha, isoxazolin, read-out: % activity (solo application)): 55%
activity at […] (Sorghum halepense; Sorghum halepense, post-emergence, 480 h, 1.6 gai/ha, read-out: % activity (solo application)): 60%
activity at […] (Sorghum halepense; Sorghum halepense, post-emergence, 480 h, 3.2 gai/ha, read-out: % activity (solo application)): 85%
% activity (Sorghum halepense; solo application, SORHA, use rate 0.8 gai/ha): 35%
activity at 0.4 g/ha (Eleusine indica; 168 h, GS 11-33, 7 DAT): 10%
activity at 0.4 g/ha (Eleusine indica; 480 h, GS 11-33, 20 DAT): 5%
activity at […] (Eleusine indica; [3]): 70%
activity at […] (Commenline benghalensis; 1.6 gai/ha): 45%
activity at […] (Commenline benghalensis; 3.2 gai/ha): 45%
activity at 0.4 g/ha (Commenline benghalensis; 480 h, GS 11-33, 20 DAT, 0.4 gai/ha): 15%
activity at […] (Lolium multiflorum; 168 h, GS 11-33, 7 DAT): 50%
activity at […] (Lolium multiflorum; 480 h, GS 11-33, 20 DAT): 80%
% activity (Lolium multiflorum; solo application, LOLMU, GS 11-33, 7 DAT, use rate 3.2 gai/ha): 50%
activity at 0.4 g/ha (Kochia scoparia; Bassia scoparia, post-emergence, 168 h, GS 11-33, 7 DAT, read-out: % activity (solo application)): 10%
activity at 0.8 g/ha (Kochia scoparia; Bassia scoparia, post-emergence, 168 h, GS 11-33, 7 DAT, 0.8 gai/ha, isoxazolin, read-out: % activity (solo application)): 25%
activity at […] (Kochia scoparia; Bassia scoparia, post-emergence, 168 h, GS 11-33, 7 DAT, 3.2 gai/ha, read-out: % activity (solo application)): 55%
activity at 0.4 g/ha (Kochia scoparia; Bassia scoparia, post-emergence, 480 h, GS 11-33, 20 DAT, read-out: % activity (solo application)): 10%
activity at […] (Kochia scoparia; Bassia scoparia, post-emergence, 480 h, GS 11-33, 20 DAT, 1.6 gai/ha, read-out: % activity (solo application)): 60%
activity at […] (Kochia scoparia; Bassia scoparia, post-emergence, 480 h, GS 11-33, 20 DAT, 3.2 gai/ha, read-out: % activity (solo application)): 70%
% activity (Kochia scoparia; GS 11-33, 7 DAT, use rate 3.2 gai/ha): 55%
% activity (Kochia scoparia; [4]): 10%
activity at 0.4 g/ha (Avena fatua; 168 h, GS 11-33, 7 DAT): 25%
activity at […] (Avena fatua; [5]): 70%
activity at 0.4 g/ha (Avena fatua; 480 h, GS 11-33, 20 DAT): 60%
activity at […] (Avena fatua; [2]): 85%
activity at […] (Avena fatua; [3]): 90%
